Test results taken from patent US7101915B1, “P-terphenyl compounds” (Shionogi & Co., Ltd., priority 1996, dated 2006).
Values after ≈ are worked out from the molar mass of the structure shown.

Tests used:
[1] = tested on: IgE production of mouse spleen lymphocytes (lipopolysaccharide, IL-4); test: Suppressive effect on antibody production of mouse spleen lymphocytes: IgE; type: cell-based, BALB/c (nu/nu) mice; conditions: LPS + IL-4, 10 days
Experimental: (§1) Experiment 6 Suppressive Effect on Antibody Production of Mouse Spleen Lymphocytes 1. Experimental Method 1) Animals
(§2) BALB/c (nu/nu) mice were bought from Japan SLC, Inc. (Shizuoka) and 7 weeks old-male mice were used.
(§3) RPMI medium (Nissui Pharmaceutical Co., Ltd.) containing 10% fetal bovine serum (HyClone Lab.) inactivated at 56° C. for 30 minutes, penicillin (100 units/ml) and streptomycin (100 μg/ml) (GIBCO) was used for experiments.
(§4) Each of the compounds was dissolved in dimethylsulfoxide (Nakaraitesk) at […] and diluted with the medium to adjust a final concentration to 0.1 μg/ml −10 μg/ml.
4) Mouse Spleen Lymphocytes
A spleen of mouse was taken out and put in a cultivating schale which was filled with Hanks' solution. The spleen was crushed and the cells were pushed out from the organ and filtered through a metal mesh (200 mesh). After the collected cell suspension was washed by centrifugation with sterile Hanks' solution (Nissui Pharmaceutical Co., Ltd.), sterile distilled water was added. […]
(§5) In 96-well cultivating plate (Sumitomo Bakelite Company Limited) mouse spleen lymphocytes were inoculated 2×10^5 cells per well. […] After the cultivation for 10 days, the amount of the antibody in a supernatant was quantified by ELISA method.
(§6) 6) Quantification of the IgE Antibody
A commercial mouse IgE EIA kit (Yamasa Shoyu Co., Ltd.) was used for the quantification of the IgE. […]

[2] = tested on: IgG2a production of mouse spleen lymphocytes; test: Suppressive effect on antibody production of mouse spleen lymphocytes: IgG2a; type: cell-based, BALB/c (nu/nu) mice; conditions: LPS + IL-4, 10 days
Experimental: as §1, §2, §3, §4
(§7) 4) Mouse Spleen Lymphocytes […]
as §5
(§8) 7) Quantification of the IgG1, IgG2a and IgM Antibodies
(§9) In 96-well plate 50 μl of 10 μg/ml Goat Anti-Mouse Ig (IgM+G+A, H+ L) (Southern Biotechnology, Birmingham) was added and the plate was coated at 4° C. overnight. […] After washing three times with PBST, 100 μl of culture supernatant which was diluted with PBS or 100 μl of an antibody standard solution (Mouse IgG1 standard, Mouse IgG2a standard, Mouse IgM standard, BETHYL Laboratories) of a pre-determined concentration was added and incubated for 1 hour. […]

[3] = tested on: IL-5 production of mouse T cell strain EL-4 (TPA); test: Suppressive effect on the cytokine production of mouse T cell strain EL-4: IL-5; type: cell-based; conditions: EL-4, TPA 10 ng/ml, 24 hours, ELISA
[4] = tested on: IL-4 production of mouse T cell strain EL-4 (TPA); test: Suppressive effect on the cytokine production of mouse T cell strain EL-4: IL-4; type: cell-based; conditions: EL-4, TPA 10 ng/ml, 24 hours, ELISA
[5] = tested on: IgM production of mouse spleen lymphocytes; test: Suppressive effect on antibody production of mouse spleen lymphocytes: IgM; type: cell-based, BALB/c (nu/nu) mice; conditions: LPS + IL-4, 10 days
Experimental: as §1, §2, §3, §4, §7, §5, §8, §9

[6] = tested on: IL-2 production of mouse T cell strain EL-4 (TPA); test: Suppressive effect on the cytokine production of mouse T cell strain EL-4: IL-2; type: cell-based; conditions: EL-4, TPA 10 ng/ml, 24 hours, ELISA
[7] = tested on: IgG1 production of mouse spleen lymphocytes; test: Suppressive effect on antibody production of mouse spleen lymphocytes: IgG1; type: cell-based, BALB/c (nu/nu) mice; conditions: LPS + IL-4, 10 days
Experimental: as §1, §2, §3, §4, §7, §5, §8, §9

[8] = tested on: C3H/HeN mouse splenocytes stimulated with Concanavalin A (Con A); test: Suppressive effect on mitogenic activity of mouse splenocytes in vitro, Con A as mitogen (MTT); type: cell-based; conditions: Con A 5 μg/ml as mitogen, 3 days
Experimental: (§10) Experiment 1 Suppressive Effect on a Mitogenic Activity of Mouse Splenocytes In Vitro
(§11) In 96-well microtiter plate 5×10^5 C3H/HeN mouse splenocytes suspended in 0.1 ml of 10% fetal bovine serum-fortified RPMI 1640 medium containing 2 mM of sodium bicarbonate, 50 units/ml of penicillin, 50 μg/ml of streptomycin and 5×10^−5 M of 2-mercaptoethanol were added. Then, 5 μg/ml of Concanavalin A (Con A) or 10 μg/ml of lipopolysaccharide (LPS) as a mitogen and the compound of a pre-determined concentration of the present invention were added to each well so that a final volume of each well reached 0.2 ml. Each compound of the present invention was dissolved in dimethylsulfoxide (DMSO) and diluted with the above RPMI 1640 medium to adjust the final concentration of 100 ng/ml or less. The splenocytes in the 96-well microtiter plate were cultivated at 37° C. for 3 days in an incubator keeping the humidity 100%, carbon dioxide 5% and air 95%. Then, 25 μl of 6 mg/ml MTT [3-(4,5-dimethylthiazol-2-yl)-2,5-diphenyltetrazolium bromide] (Sigma) was added to the each well and cultivated at 37° C. for 4 hours under the same conditions. After the cultivation, 50 μl of 0.02 N hydrochloric acid in 20% sodium dodecyl sulfate (SDS) was added to formazan generated and left at 37° C. for 24 hours for dissolving formazan. An absorption intensity (OD) of formazan generated in proportion to the number of living cells was measured with an immunoreader (InterMed) equipped with a 570 nm filter (The Journal of Immunological Method, 65, 55-63, 1983). The 50% inhibitory concentration of a cell proliferation (IC 50) was calculated from a correlation between the concentration of the compound of the present invention and the absorption intensity.

[9] = tested on: IgE antibody production of human peripheral lymphocytes (anti-human CD 40, IL-4, IL-10); test: Suppressive effect on the antibody production of human lymphocytes: IgE; type: cell-based; conditions: 10 days, ELISA
Experimental: (§12) Experiment 5 Suppressive Effect on the Antibody Production of Human Lymphocytes
(§13) 1) Human Peripheral Blood
(§14) Human peripheral blood was drawn from healthy male adults by plastic syringes filled with heparin (final concentration 1.5%). Lymphocytes were collected immediately after blood was drawn.
RPMI medium (Nissui Pharmaceutical Co., Ltd.) containing 10% fetal bovine serum (HyClone Lab.) inactivated at 56° C. for 30 minutes, penicillin (100 units/ml) and streptomycin (100 μg/ml) (GIBCO) was used.
After the compound (I-839) of the present invention was dissolved in dimethylsulfoxide (Nakaraitesk) at […], the solution was diluted with the medium to adjust a final concentration to be 0.01 μg/ml −10 μg/ml. […]
(§15) In 96-well cultivating plate (Sumitomo bakelite) the lymphocytes were inoculated 2×10^5 cells per well, and the compound, anti-human CD 40 antigen (Pharmingen, 2 μg/ml), human recombinant interleukin-4 (IL-4) (Genzyme, 0.1 μg/ml) and human recombinant interleukin-10 (IL-10) (Genzyme, 0.2 μg/ml) were added and cultivated at 37° C. under 5% of CO2 (0.2 ml/well). After the cultivation for 10 days, the amount of antibody in a supernatant was quantified by ELISA method.
as §6
A commercial kit MESACUP IgE test (Medical & Biological Laboratories Co., Ltd.) was used for the quantification of the IgE. […]

[10] = tested on: mouse thymoma strain EL4 cells; test: Anti-proliferative activity on EL4 cells (MTT); type: cell-based; conditions: 3 days
Experimental: Experiment 2 Anti-Proliferative Activity on EL4 Cells
In 96-well microtiter plate 4×10^4/0.1 ml of mouse thymoma strain EL4 cells were added and 0.1 ml of the compound of the present invention was added to the mixture so that the concentration was in the range of 0-5,000 ng/ml. After the cultivation for 3 days, the IC50 was calculated by the MTT method as described in Experiment 1.

[11] = tested on: IgG production of human peripheral lymphocytes; test: Suppressive effect on the antibody production of human lymphocytes: IgG; type: cell-based; conditions: 10 days, ELISA
Experimental: as §12, §13, §14
(§16) RPMI medium (Nissui Pharmaceutical Co., Ltd.) containing 10% fetal bovine serum (HyClone Lab.) inactivated at 56° C. for 30 minutes, penicillin (100 units/ml) and streptomycin (100 μg/ml) (GIBCO) was used. […]
as §15
(§17) 7) Quantification of the IgG and IgM Antibodies
(§18) ELISA method was used for the quantification. […] After washing three times with PBST, 100 μl of a sample diluted with PBS or 100 μl of human Plasma IgG standard solution or IgM standard solution (BioPur AG, Switzerland) of a pre-determined concentration was added and incubated at room temperature for 1 hour. […]

[12] = tested on: IgM production of human peripheral lymphocytes; test: Suppressive effect on the antibody production of human lymphocytes: IgM; type: cell-based; conditions: 10 days, ELISA
Experimental: as §12, §13, §14, §16, §15, §17, §18

[13] = tested on: C3H/HeN mouse splenocytes stimulated with lipopolysaccharide (LPS); test: Suppressive effect on mitogenic activity of mouse splenocytes in vitro, LPS as mitogen (MTT); type: cell-based; conditions: LPS 10 μg/ml as mitogen, 3 days
Experimental: as §10, §11

Row | SMILES | IC50 IgE [1] [ng/mL] | IC50 IgG2a [2] [ng/mL] | IC50 IL-5 [3] [ng/mL] | IC50 IL-4 [4] [ng/mL] | IC50 IgM [5] [ng/mL] | IC50 IL-2 [6] [ng/mL] | IC50 IgG1 [7] [ng/mL] | ConA IC50 [8] [ng/mL] | IC50 IgE [9] [ng/mL] | EL-4 IC50 [10] [ng/mL] | IC50 IgG [11] [ng/mL] | IC50 IgM [12] [ng/mL] | LPS IC50 [13] [ng/mL]
1 | COc1cc(-c2ccc(OCC=C(C)C)c(F)c2)c(OC)cc1-c1ccc(O)cc1 [Compound I-73] | 0.044 | 4900 | 15 (≈ 36.7 nM) | 20 (≈ 49 nM) | 4200 | 500 (≈ 1220 nM) | 2600 |  |  |  |  |  | 
2 | COc1cc(-c2ccc(O)cc2)c(OC)c(O)c1-c1ccc(OCC=C(Cl)Cl)c(O)c1 [Compound I-121] |  |  |  |  |  |  |  | 0.8 | <0.0001 | 0.8 | <0.0001 | >1 | 1.2
